According to patent publication US8575103B2, “Peptides and methods for inhibiting G alpha protein signaling” (The Board of Trustees of the University of Illinois, priority 2009, dated 2013):
“Also recorded” adds a separate entry of the source. Like-named read-outs stand apart in the source and are kept apart here. Where no end group is shown, it is not given here. The star is where a group is joined. Myristoyl = CCCCCCCCCCCCCC(=O)*

Assays:
CD1 mice = test: bleeding time in mice after intravenous administration; assay type: in vivo; settings: 100 μl of 3.7 mM intravenously via tail vein, tail cut five minutes after administration
Protocol: Briefly, CD1 mice (25 grams) were anesthetized with sodium pentobarbital, and either 100 μl of vehicle or 100 μl of a vehicle solution containing 3.7 mM of each peptide or aspirin was administered intravenously via the tail vein. Five minutes following administration, the tail was cut 0.5 cm from the tip and immersed in PBS buffer (pH 7.4; 37EC). Cessation of bleeding was observed visually and the total bleeding time was recorded.

α11bβ3 integrin [1] = molecular target: T1, α11bβ3 integrin (Homo sapiens, UniProt P05106+P08514+Q9Y490); test: peptide affinity column with solubilized human platelets, western blot for α11bβ3; assay type: binding; settings: immunoblot, bands at 130 kD and 115 kD
T1 construct: detected two bands, one at 130 kD and the other at 115 kD in solubilized human platelets; endogenous in cells; host or cells: solubilized human platelets
From the text: (§1) On this basis, subsequent experiments examined whether G13SR2pep peptide (SEQ ID NO:5) does indeed directly interact with α11bβ3 and/or one of its associated proteins in human platelets. In this respect, platelet α11bβ3 integrin is known to exist in a complex with two cytoplasmic proteins, i.e., talin and kindlin-3 (Tadokoro, et al. (2003) Science 302:103-6; Moser, et al. (2008) Nature Med. 14:325-30). To determine whether G13SR2pep, (SEQ ID NO:5) interacts with any of these proteins (or with the entire α11bβ3, talin, kindlin-3 complex), peptide affinity columns using G13SR2pep (SEQ ID NO:5) were employed. The affinity purified protein(s) from solubilized human platelets that specifically bound to the G13SR2pep peptide were eluted, and analyzed by western blot for α11bβ3 integrin, talin and kindlin-3. In similar experiments, the eluates from a peptide column using the G13SR2-Random Peptide (SEQ ID NO:9) were also analyzed. Immunoblot analysis with the α11bβ3 antibodies (Abcam) detected two bands, one at 130 kD and the other at 115 kD in solubilized human platelets as well as in the elution fraction obtained from the G13SR2pep (SEQ ID NO:5) affinity column. […] This was supported by similar experiments using talin antibodies and the kindlin 3 antibody (Abcam).

talin = molecular target: T2, talin (Homo sapiens, UniProt Q9Y490); test: peptide affinity column with solubilized human platelets, western blot for talin; assay type: binding; settings: solubilized human platelets, immunoblot; whole talin (220 kD), talin head domain (47 kD)
T2 construct: also purified whole talin (220 kD), the talin head domain (47 kD) and kindlin 3 (72 kD); endogenous in cells; host or cells: solubilized human platelets
From the text: as §1
Thus, the binding of G13SR2pep (SEQ ID NO:5) to the talin head domain serves as the basis for the ability of G13SR2pep to inhibit α11bβ3 integrin activation and platelet aggregation. As such, peptides or specific compounds fashioned to mimic or modify the switch region interaction with talin, α11bβ3 integrin or other α11bβ3 integrin-associated proteins would have profound effects on thrombosis and other integrin-linked disease processes.

kindlin-3 = molecular target: T3, kindlin-3 (Homo sapiens, UniProt Q86UX7); test: peptide affinity column with solubilized human platelets, western blot for kindlin-3; assay type: binding; settings: immunoblot, kindlin 3 (72 kD)
T3 construct: also purified whole talin (220 kD), the talin head domain (47 kD) and kindlin 3 (72 kD); endogenous in cells; host or cells: solubilized human platelets
From the text: as §1

human platelets [2] = test: human platelet aggregation in platelet rich plasma (PRP); assay type: cell-based
human platelets [3] = test: as above; assay type: cell-based; settings: for effect on human platelet aggregation induced by U46619 (TP): 0.5 μM U46619
Protocol: Trace (a) is control data from human platelet rich plasma (PRP) incubated with 500 μM of the Random Peptide (Myr-Leu-Ile-Arg-Pro-Tyr-Leu-His-Arg-Ala-Thr-Lys-Glu-Gly; SEQ ID NO:6), prior to stimulation with 15 μM of the PAR1 receptor agonist TRAP1. Trace (b) depicts data wherein PRP was treated with 30 μM Myr-G13SR1pep-2 prior to stimulation with 15 μM TRAP1. Trace (c) depicts data wherein PRP was treated with 50 μM Myr-G13SR1pep-2 prior to stimulation with 15 μM TRAP1. Trace (d) is control data showing PRP treated with 500 μM of the Random Peptide (SEQ ID NO:6) prior to stimulation with the 0.5 μM thromboxane receptor agonist U46619. Trace (e) depicts data wherein PRP was treated with 500 μM Myr-G13SR1pep-2 prior to stimulation with 0.5 μM U46619. Trace (f) is control data showing PRP treated with 500 μM of the Random Peptide (SEQ ID NO:6) prior to stimulation with 10 μM of the P2Y1/P2Y12 receptor agonist ADP. […] Trace (h) depicts control data showing PRP treated with 500 μM of the Random Peptide (SEQ ID NO:6) prior to stimulation with 40 μM of the PAR4 receptor agonist TRAP4. Trace (i) depicts data wherein PRP was treated with 500 μM Myr-G13SR1pep-2 prior to stimulation with 40 μM TRAP4.
Trace (a) depicts control data showing PRP treated with 500 μM of the Random Peptide (Myr-Gln-Arg-Ile-Arg-Phe-Cys-Ser-Glu-Gly-Val-Glu-Lys-Gly-His-Trp-Asn-Arg; SEQ ID NO:7) prior to stimulation with 15 μM of the PAR1 receptor agonist TRAP1. Trace (b) depicts data wherein PRP was treated with 500 μM Myr-GqSR2pep prior to stimulation with 15 μM TRAP1. Trace (c) is control data showing PRP treated with 500 μM Random Peptide (SEQ ID NO:7) prior to stimulation with the 0.5 μM of the thromboxane receptor agonist U46619. Trace (d) depicts data wherein PRP was treated with 50 μM Myr-GqSR2pep, prior to stimulation with 0.5 μM U46619. Trace (e) depicts data wherein PRP was treated with 150 μM Myr-GqSR2pep prior to stimulation with 0.5 μM U46619. Trace (f) is control data showing PRP treated with 500 μM Random Peptide (SEQ ID NO:7) prior to stimulation with 10 μM ADP. Trace (g) depicts data wherein PRP was treated with 50 μM Myr-GqSR2pep prior to stimulation with 10 μM ADP. Trace (h) depicts data wherein PRP was treated with 150 μM Myr-GqSR2pep prior to stimulation with 10 μM ADP. Trace (i) is control data showing PRP treated with 500 μM Random Peptide (SEQ ID NO:7) prior to stimulation with 40 μM of the PAR4 receptor agonist TRAP4. Trace (j) depicts data wherein PRP was treated with 150 μM Myr-GqSR2pep prior to stimulation with 40 μM of TRAP4.
Trace (a) is control data showing PRP treated with 500 μM of the Random Peptide (Myr-Gly-Ile-His-Glu-Trp-Glu-Val-Gly-Ser-Phe-Lys-Gly-Cys-Gln-Lys-Arg-Arg; SEQ ID NO:8) prior to stimulation with 15 μM of the PAR1 receptor agonist TRAP1. Trace (b) depicts data wherein PRP was treated with 500 μM Myr-GiSR2pep prior to stimulation with 15 μM TRAP1. Trace (c) is control data showing PRP treated with 500 μM Random Peptide (SEQ ID NO:8) prior to stimulation with the 0.5 μM of the thromboxane receptor agonist U46619. Trace (d) depicts data wherein PRP was treated with 500 μM Myr-GiSR2pep prior to stimulation with 0.5 μM U46619. Trace (e) is control data showing PRP treated with 500 μM Random Peptide (SEQ ID NO:8) prior to stimulation with 10 μM ADP. Trace (f) depicts data wherein PRP was treated with 150 μM Myr-GiSR2pep, prior to stimulation with 10 μM ADP. Trace (g) depicts data wherein PRP was treated with 500 μM Myr-GiSR2pep prior to stimulation with 10 μM ADP. Trace (h) is control data showing PRP treated with 500 μM Random Peptide prior (SEQ ID NO:8) to stimulation with 40 μM of the PAR4 receptor agonist TRAP4. Trace (i) depicts data wherein PRP was treated with 500 μM Myr-GiSR2pep prior to stimulation with 40 μM of TRAP4 […]

human platelets [4] = settings: Huang, et al. (2007) J. Biol. Chem. 282:10210-10222; cited from earlier work
α11bβ3 integrin [5] = test: platelet α11bβ3 integrin activation, FITC-PAC1 antibody binding by flow cytometry; assay type: cell-based, human; settings: single substitution Arg232 to Ala versus parent G13SR2pep
Protocol: The platelet count in human PRP was adjusted to 1×10^6 platelets/ml. The platelets were then labeled with FITC-conjugated PAC1 antibody against activated α11bβ3 integrin, and the samples were analyzed by flow cytometry in a Beckman Coulter CyAn II Flow Cytometer. Trace (a) depicts resting platelets labeled with FITC-PAC-1 antibody. Trace (b) depicts platelets stimulated with 0.5 μM U46619 and labeled with FITC-PAC1 antibody. Trace (c) depicts platelets incubated with 500 μM of the Random Peptide (SEQ ID NO:9), followed by 0.5 μM U46619 stimulation and FITC-PAC1 labeling. Trace (d) depicts platelets incubated with 150 μM of the G13SR2pep, followed by 0.5 μM U46619 stimulation and FITC-PAC1 labeling.
Subsequent experiments examined the effect of G13SR2pep, (SEQ ID NO:5) on human platelet α11bβ3 integrin activation as measured by FITC-PAC-1 antibody binding.

[6] = PRP, 500 μM peptide, 15 μM TRAP1
[7] = PRP, 500 μM peptide, 40 μM TRAP4

T2 sequence (Q9Y490 1-433): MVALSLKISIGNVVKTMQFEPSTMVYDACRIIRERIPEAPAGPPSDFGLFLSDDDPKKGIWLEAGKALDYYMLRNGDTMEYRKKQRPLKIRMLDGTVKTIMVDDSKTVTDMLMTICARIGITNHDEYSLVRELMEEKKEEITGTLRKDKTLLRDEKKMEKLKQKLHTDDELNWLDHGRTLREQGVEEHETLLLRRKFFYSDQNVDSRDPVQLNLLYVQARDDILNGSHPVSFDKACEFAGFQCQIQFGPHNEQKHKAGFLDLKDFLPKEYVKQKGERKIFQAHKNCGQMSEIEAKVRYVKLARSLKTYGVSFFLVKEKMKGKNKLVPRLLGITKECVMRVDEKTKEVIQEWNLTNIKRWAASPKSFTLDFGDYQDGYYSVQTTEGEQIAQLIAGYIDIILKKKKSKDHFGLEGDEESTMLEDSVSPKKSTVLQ

Compound: CC(=O)Oc1ccccc1C(=O)O [ASA, aspirin, reference compound]
- bleeding time (CD1 mice): increase

Compound: GFDEWEVSFKGCQRRSR [Random Peptide (SEQ ID NO:9), random peptide control for G13SR2pep, reference compound]
- α11bβ3 in affinity column eluate (interaction with peptide) (α11bβ3 integrin [1]): did not reveal the presence
- talin in affinity column eluate (talin): did not reveal the presence
- kindlin 3 in affinity column eluate (kindlin-3): did not reveal the presence
- inhibition of human platelet aggregation stimulated by U46619 (human platelets [2]; PRP, 75-150 μM G13SR2pep (Random Peptide 500 μM), 0.5 μM U46619): without effect
- inhibition of human platelet aggregation stimulated by ADP (human platelets [2]; PRP, 75-150 μM G13SR2pep (Random Peptide 500 μM), 10 μM ADP): without effect
- inhibition of human platelet aggregation stimulated by TRAP1 (human platelets [2]; PRP, 75-150 μM G13SR2pep (Random Peptide 500 μM), 15 μM TRAP1): without effect
- inhibition of human platelet aggregation stimulated by TRAP4 (human platelets [2]; PRP, 75-150 μM G13SR2pep (Random Peptide 500 μM), 50 μM TRAP4): without effect

Compound: Myr-Leu-Leu-Ala-Arg-Arg-Pro-Thr-Ala-Gly-Ile-His-Glu-Tyr (Myristoyl-LLARRPTAGIHEY) [Myr-G13SR1pep-2, myristoylated Gα13 switch region 1 peptide, Lys changed to Ala]
- effect on human platelet aggregation induced by U46619 (TP) (human platelets [3]; PRP, 500 μM peptide): no measurable effect
- effect on human platelet aggregation induced by ADP (human platelets [3]; PRP, 500 μM peptide, 10 μM ADP): no measurable effect
- effect on human platelet aggregation induced by TRAP1 (PAR1) (human platelets [3]; [6]): no measurable effect
- effect on human platelet aggregation induced by TRAP4 (PAR4) (human platelets [3]; [7]): no measurable effect
- inhibition of PAR1-induced human platelet aggregation (human platelets [3]; PRP, 30-50 μM peptide, 15 μM TRAP1): progressive inhibition; also recorded: blocked
- potency relative to the original peptide (Myr-G13SR1pep) for inhibition of PAR1-induced human platelet aggregation (human platelets [3]; human PRP): ten-fold increased potency
- bleeding time (CD1 mice): increased bleeding times; also recorded: substantially increases

Compound: Myr-Leu-Leu-Ala-Arg-Arg-Pro-Thr-Lys-Gly-Ile-His-Glu-Tyr (Myristoyl-LLARRPTKGIHEY) [Myr-G13SR1pep, original permeable peptide representing SR1 of the Gα13 subunit (Huang, et al. 2007)]
- inhibition of PAR1-induced human platelet aggregation (human platelets [4]): selectively and dose-dependently inhibited

Compound: Myr-Val-Gly-Gly-Gln-Arg-Ser-Glu-Arg-Arg-Lys-Trp-Ile-His-Cys-Phe-Glu-Asn (Myristoyl-VGGQRSERRKWIHCFEN) [Myr-GqSR2pep, myristoylated Gαq switch region 2 peptide]
- effect on human platelet aggregation induced by TRAP1 (PAR1) (human platelets [3]; [6]): ineffective
- inhibition of human platelet aggregation induced by PAR4 receptors (human platelets [3]; PRP, 50-150 μM peptide, 40 μM TRAP4): dose-dependent inhibition
- inhibition of human platelet aggregation induced by TP receptors (human platelets [2]; PRP, 50-150 μM peptide, 0.5 μM U46619): dose-dependent inhibition
- inhibition of human platelet aggregation induced by ADP receptors (human platelets [2]; PRP, 50-150 μM peptide, 10 μM ADP): dose-dependent inhibition

Compound: Myr-Val-Gly-Gly-Gln-Arg-Ser-Glu-Arg-Lys-Lys-Trp-Ile-His-Cys-Phe-Glu-Gly (Myristoyl-VGGQRSERKKWIHCFEG) [Myr-Gi SR2pep, myristoylated Gαi switch region 2 peptide]
- effect on human platelet aggregation induced by U46619 (TP) (human platelets [3]; PRP, 500 μM peptide): without affecting
- effect on human platelet aggregation induced by TRAP1 (PAR1) (human platelets [3]; [6]): without affecting
- effect on human platelet aggregation induced by TRAP4 (PAR4) (human platelets [3]; [7]): without affecting
- inhibition of ADP-induced aggregation (human platelets [3]; PRP, 150-500 μM peptide, 10 μM ADP): dose-dependent (150-500 μM) inhibition

Compound: RSERKRWFECFD [G13SR2pep-truncated, truncated version of the G13 Switch Region 2 peptide]
- inhibition of human platelet aggregation compared with full length G13SR2pep (human platelets [2]; PRP, 150 μM peptide, 15 μM TRAP1 or 0.5 μM U46619 (FIG. 5)): inhibited human platelet aggregation with the same potency

Compound: VGGQRSERKAWFECFDS [G13SR2mutant pep, G13SR2pep with single substitution at amino acid 232 from Arg to Ala, reference compound]
- ability to block integrin activation (α11bβ3 integrin [5]): completely eliminated the ability
- ability to block platelet activation (human platelets [2]; single substitution Arg232 to Ala versus parent G13SR2pep): completely eliminated the ability
